Results from US9371333B2, “Chromene derivatives and their analoga as Wnt pathway antagonists” (Deutsches Krebsforschungszentrum, priority 2010, dated 2016).

Key:
Format in all cases: cell-based
HepG2 = test: Cytotoxicity in HepG2 (CellTiterGlo); settings: Homo sapiens, 24 h after compound addition
Procedure: (§1) For examination of cytotoxicity in these cancer cell lines the commercial available CellTiterGlo® Reagent (Promega, USA) was used according to the manufactor.
(§2) Compounds were applied to Hek293T (denoted (a)) or HepG2 (denoted (b)), cultured in Dulbecco's Modified Eagles Medium, supplemented with 10% fetal calf serum and 1% penicillin/streptomycin. Cells were grown in T75 flasks at 37° C., 5% CO2 and trypsinized when 60-80% confluent by adding 2 ml of 0.25% Trypsin-EDTA solution. Cells were then re-suspended into culture medium yielding approx. 4000 cells (a) or 4500 cells (b), suspended in 30 microl medium. 48 h after cell seeding, compounds were added to yield the desired final concentrations. 24 h after compound addition cytotoxicity was evaluated. For this purpose the media was removed and CellTiterGlo® was added according to the manufactors manual. In this assay the luciferase emission readout is directly correlated with the cellular amount of ATP, low luciferase emission thus is reflecting cytotoxicity of a compound.

Hek293T = test: Cytotoxicity in Hek293T (CellTiterGlo); settings: Homo sapiens, HEK-293T, 24 h after compound addition
Procedure: as §1, §2

[1] = test system: human fibroblasts (HS-68); test: Cell line specific cytotoxicity, normal cells HS68 (nuclei count); settings: Hoechst labeled nuclei count, at least 72 hr
Procedure: For examination of cell line-specific cytotoxicity, compounds were applied to human colorectal cancer cells (HCT116, denoted (1); SW480, denoted (2); Dld-1, denoted (3)) and human fibroblasts (HS-68, denoted (4)), cultured in Mc Coy's ((1)) and Dulbecco's Modified Eagles Medium ((2)-(4)), supplemented with 10% ((1)-(3)) and 20% ((4)) fetal calf serum and 1% penicillin/streptomycin. Cells were grown in T75 flasks at 37° C., 5% CO2 and trypsinized when 60-80% confluent by adding 2 ml of 0.25% Trypsin-EDTA (ethylenediaminetetraacetic acid) solution. Cells were then re-suspended into culture medium yielding approx. 750 cells, suspended in 45 microl medium, were plated into each well of a black 384-well plate for fluorescence imaging experiments. […] Compound incubation was terminated by (a) fixation and (b) permeabilisation of cells, followed by (c) fluorescence labeling of cell nuclei for cytometric quantification or by immunocytochemistry for microscopic evaluation of cell morphology. […]
Cell line-specific cytotoxicity was quantified by counting the number of Hoechst labeled nuclei per well of a 384-well plate using a plate cytometer. Data obtained with the cytometer was analysed using standard data analysis software.
Identified hits were further evaluated by visual inspection of fluorescence micrographs obtained from imaging using a conventional fluorescence microscope.

SMILES: C=CCOc1c(Br)cc(C2C(C(=O)OCC)=C(N)Oc3cc4c(cc32)OCO4)cc1OC (stereo not drawn) [(42), 8-(4-Allyloxy-3-bromo-5-methoxy-phenyl)-6-amino-8H-[1,3]dioxolo[4,5-g]chromene-7-carboxylic acid ethyl ester]
- IC50 (HepG2): > 90 µM
- IC50 (Hek293T): > 90 µM

SMILES: COc1cc(C2C(C#N)=C(N)Oc3cc4ccccc4cc32)cc(Br)c1OC (stereo not drawn) [(30), 2-Amino-4-(3-bromo-4,5-dimethoxy-phenyl)-4H-benzo[g]chromene-3-carbonitrile]
- IC50 (HepG2): > 90 µM
- IC50 (Hek293T): > 90 µM

SMILES: CCOC(=O)C1=C(N)Oc2c(ccc3ccccc23)C1c1cc(Br)c(OC)c(OC)c1 (stereo not drawn) [(6), 2-Amino-4-(3-bromo-4,5-dimethoxy-phenyl)-4H-benzo[h]chromene-3-carboxylic acid ethyl ester]
- IC50 (HepG2): > 90 µM
- IC50 (Hek293T): > 90 µM

SMILES: COc1cc(C2C(C#N)=C(N)Oc3c2ccc2ccc(N)nc32)cc(Br)c1OC (racemic) [(20), 3,6-Diamino-1-(3-bromo-4,5-dimethoxy-phenyl)-1H-4-oxa-5-aza-phenanthrene-2-carbonitrile]
- IC50 (HepG2): 37 µM
- IC50 (Hek293T): > 90 µM

SMILES: COc1cc(C2C(C#N)=C(N(C)C)Oc3cc4ccccc4cc32)cc(Br)c1OC (stereo not drawn) [(31), 2-Dimethylamino-4-(3-bromo-4,5-dimethoxy-phenyl)-4H-benzo[g]chromene-3-carbonitrile]
- IC50 (HepG2): > 90 µM
- IC50 (Hek293T): > 90 µM

SMILES: COc1cc(C2C(C#N)=C(N)Oc3c2ccc2ccc(O)nc32)cc(Br)c1OC (stereo not drawn) [(19), 3-Amino-1-(3-bromo-4,5-dimethoxy-phenyl)-6-hydroxy-1H-4-oxa-5-aza-phenanthrene-2-carbonitrile]
- IC50 (HepG2): > 90 µM
- IC50 (Hek293T): > 90 µM

SMILES: N#CC1=C(N)Oc2cc3ccccc3cc2C1c1cc(F)c(N2CCCCC2)c(F)c1 (stereo not drawn) [(29), 2-amino-4-(3,5-difluoro-4-piperidin-1-yl-phenyl)-4H-benzo[g]chromene-3-carbonitrile]
- IC50 (HepG2): 42.5 µM
- IC50 (Hek293T): > 90 µM

SMILES: COc1cc(C2C(C#N)=C(N)Oc3c2ccc2ccccc32)cc(Br)c1OC (stereo not drawn) [(1), 2-Amino-4-(3-bromo-4,5-dimethoxy-phenyl)-4H-benzo[h]chromene-3-carbonitrile]
- IC50 (HepG2): > 90 µM
- IC50 (Hek293T): > 90 µM

SMILES: CCOC(=O)C1=C(N)Oc2cc3c(cc2C1c1cc(F)c(F)c(F)c1)OCO3 (stereo not drawn) [(40), 6-Amino-8-(3,4,5-trifluoro-phenyl)-8H-[1,3]dioxolo[4,5-g]chromene-7-carboxylic acid ethyl ester]
- IC50 (HepG2): > 90 µM
- IC50 (Hek293T): > 90 µM

SMILES: COc1cc(C2C(C#N)=C(N)Oc3c2ccc2ccc(C)nc32)cc(Br)c1OC (stereo not drawn) [(16), 3-Amino-1-(3-bromo-4,5-dimethoxy-phenyl)-6-methyl-1H-4-oxa-5-aza-phenanthrene-2-carbonitrile]
- IC50 (HepG2): > 90 µM
- IC50 (Hek293T): > 90 µM

SMILES: N#CC1=C(N)Oc2c(ccc3ccccc23)C1c1cc(F)c(F)c(F)c1 (stereo not drawn) [(7), 2-Amino-4-(3,4,5-trifluoro-phenyl)-4H-benzo[h]chromene-3-carbonitrile]
- IC50 (HepG2): > 90 µM
- IC50 (Hek293T): > 90 µM

SMILES: N#CC1=C(N)Oc2cc3ccccc3cc2C1c1cc(F)c(F)c(F)c1 (stereo not drawn) [(28), 2-amino-4-(3,4,5-trifluoro-phenyl)-4H-benzo[g]chromene-3-carbonitrile]
- IC50 (HepG2): 31.7 µM
- IC50 (Hek293T): > 90 µM

SMILES: N#CC1=C(N)Oc2cc3c(cc2C1c1cc(F)c(F)c(F)c1)OCO3 (stereo not drawn) [(39), 6-Amino-8-(3,4,5-trifluoro-phenyl)-8H-[1,3]dioxolo[4,5-g]chromene-7-carbonitrile]
- IC50 (HepG2): > 90 µM
- IC50 [1]: > 90 µM
- IC50 (Hek293T): > 90 µM

SMILES: C=CCOc1c(Br)cc(C2C(C#N)=C(N)Oc3cc4c(cc32)OCO4)cc1OC (stereo not drawn) [(41), 8-(4-Allyloxy-3-bromo-5-methoxy-phenyl)-6-amino-8H-[1,3]dioxolo[4,5-g]chromene-7-carbonitrile]
- IC50 (HepG2): > 90 µM
- IC50 (Hek293T): > 90 µM

SMILES: COc1cc(C2C(C#N)=C(N)Oc3c2ccc2ncccc32)cc(Br)c1OC (stereo not drawn) [(18), 6-Amino-8-(3-bromo-4,5-dimethoxy-phenyl)-8H-5-oxa-1-aza-phenanthrene-7-carbonitrile]
- IC50 (HepG2): > 90 µM
- IC50 (Hek293T): > 90 µM

SMILES: C=CCOc1c(Br)cc(C2C(C(=O)OCC)=C(N)Oc3c2ccc2ccccc32)cc1OC (stereo not drawn) [(4), 4-(4-Allyloxy-3-bromo-5-methoxy-phenyl)-2-amino-4H-benzo[h]chromene-3-carboxylic acid ethyl ester]
- IC50 (HepG2): > 90 µM
- IC50 (Hek293T): > 90 µM

SMILES: COc1cc(C2C(C#N)=C(N)Oc3c2c(O)nc2ccccc32)cc(Br)c1OC (stereo not drawn) [(17), 2-Amino-4-(3-bromo-4,5-dimethoxy-phenyl)-5-hydroxy-4H-pyrano[3,2-c]quinoline-3-carbonitrile]
- IC50 (HepG2): > 90 µM
- IC50 [1]: > 90 µM
- IC50 (Hek293T): > 90 µM
